According to ChEMBL document CHEMBL5149985, “Discovery of cytotoxic natural products from Red Sea sponges: Structure and synthesis” (Eur J Med Chem, 2021):

What was measured:
HeLa [1] = experiment: Antiproliferative activity against human HeLa cells assessed as cell viability measured after 24 hrs by MTT assay; type: functional, cell-based
[2] = Antiproliferative activity against mouse Pheochromocytoma cells(MPC) assessed as reduction in relative cell viability at 25 uM incubated for 24 hrs by proliferation assay relative to control; type: functional
[3] = Antiproliferative activity against mouse Pheochromocytoma cells(MTT) assessed as reduction in relative cell viability at 25 uM incubated for 24 hrs by proliferation assay; type: functional
[4] = Antiproliferative activity against mouse Pheochromocytoma cells(MPC) assessed as reduction in relative cell viability at 50 uM incubated for 24 hrs by proliferation assay relative to control; type: functional
[5] = Antiproliferative activity against mouse Pheochromocytoma cells(MTT) assessed as reduction in relative cell viability at 50 uM incubated for 24 hrs by proliferation assay; type: functional
[6] = Antiproliferative activity against mouse Pheochromocytoma cells(MTT) assessed as reduction in relative cell viability incubated for 24 hrs by proliferation assay; type: functional, cell-based
MDA-MB-231 [7] = experiment: Anticancer activity against human MDA-MB-231 cells assessed as cell viability measured after 24 hrs by MTT assay; type: functional, cell-based; details: MDA-MB-231, 24 h
MDA-MB-231 [8] = experiment: Antimigratory activity against human MDA-MB-231 cells assessed as inhibition of cell migration at 10 uM incubated for 24 hrs by scratch wound healing assay relative to control; type: functional; design: scale not given: the % may be the effect or the level left
MDA-MB-231 [9] = experiment: Antimigratory activity against human MDA-MB-231 cells assessed as inhibition of cell migration at 2 uM incubated for 24 hrs by […] relative to control; type: functional; design: scale not given: the % may be the effect or the level left
HeLa [10] = experiment: Anticancer activity against human HeLa assessed as inhibition of cell growth incubated for 48 hrs by SRB assay; type: functional, cell-based
BT-474 = experiment: Anticancer activity against human BT-474 cells assessed as cell growth inhibition incubated for 48 hrs by MTT assay; type: functional, cell-based; details: BT-474, 48 h
MDA-MB-231 [11] = experiment: Anticancer activity against human MDA-MB-231 cells assessed as cell growth inhibition incubated for 48 hrs by MTT assay; type: functional, cell-based; details: MDA-MB-231, 48 h
MCF7 [12] = experiment: Anticancer activity against human MCF7 cells assessed as cell growth inhibition incubated for 48 hrs by MTT assay; type: functional, cell-based; details: MCF7, 48 h
SK-BR-3 = experiment: Anticancer activity against human SK-BR-3 cells assessed as cell growth inhibition incubated for 48 hrs by MTT assay; type: functional, cell-based; details: SK-BR-3, 48 h
T47D = experiment: Anticancer activity against human T47D cells assessed as cell growth inhibition incubated for 48 hrs by MTT assay; type: functional, cell-based
HepG2 [13] = experiment: Anticancer activity against human HepG2 cells assessed as inhibition of cell growth incubated for 96 hrs; type: functional, cell-based; details: HepG2, 96 h
A549 = experiment: Anticancer activity against human A549 cells assessed as inhibition of cell growth incubated for 96 hrs; type: functional, cell-based; details: A549, 96 h
PC-3 = experiment: Anticancer activity against human PC-3 cells assessed as inhibition of cell growth incubated for 96 hrs; type: functional, cell-based; details: PC-3, 96 h
HCT-116 [14] = experiment: Antiproliferative activity against human HCT-116 cells assessed as cell viability measured after 24 hrs by MTT assay; type: functional, cell-based; details: HCT-116, 24 h
MDA-MB-231 [15] = experiment: Antimigratory activity against human MDA-MB-231 cells assessed as reduction in cell growth measured after 48 hrs by SRB assay; type: functional, cell-based; details: MDA-MB-231, 48 h
MDA-MB-231 [16] = experiment: Anticancer activity against human MDA-MB-231 assessed as inhibition of cell growth incubated for 48 hrs by SRB assay; type: functional, cell-based; details: MDA-MB-231, 48 h
MDA-MB-231 [17] = experiment: Anticancer activity against human MDA-MB-231 cells assessed as inhibition of cell growth; type: functional, cell-based
MDA-MB-231 [18] = experiment: Anticancer activity against human MDA-MB-231 cells assessed as reduction in cell viability measured after 72 hrs by MTT assay; type: functional, cell-based; details: MDA-MB-231, 72 h
HeLa [19] = experiment: Anticancer activity against human HeLa cells assessed as reduction in cell viability measured after 72 hrs by MTT assay
HCT-116 [20] = experiment: Anticancer activity against human HCT-116 cells assessed as reduction in cell viability measured after 72 hrs by MTT assay; details: HCT-116, 72 h
L5178Y [21] = experiment: Anticancer activity against mouse L5178Y cells assessed as reduction in cell growth at 3 uG by [3H] Thymidine assay relative to control; type: functional; details: dose 3 µg
L5178Y [22] = experiment: Anticancer activity against mouse L5178Y cells assessed as reduction in cell growth at 10 uG by [3H] Thymidine assay relative to control; type: functional; details: dose 10 µg
L5178Y [23] = experiment: Anticancer activity against mouse L5178Y cells assessed as reduction in cell growth by [3H] Thymidine assay relative to control; type: functional, cell-based
MCF7 [24] = experiment: Anticancer activity against human MCF7 cells assessed as inhibition of cell growth incubated for 72 hrs by MTT assay; type: functional, cell-based; details: MCF7, 72 h
MDA-MB-231 [25] = experiment: Anticancer activity against human MDA-MB-231 cells assessed as inhibition of cell growth incubated for 72 hrs by MTT assay; type: functional, cell-based; details: MDA-MB-231, 72 h
[26] = Inhibition of actin (unknown origin) polymerization at 100 nM incubated for 20 mins in presence of ATP by ELISA analysis relative to control; details: Homo sapiens
Homo sapiens = species on record: Homo sapiens; experiment: Inhibition of actin (unknown origin) polymerization at 1 uM incubated for 20 mins in presence of ATP by ELISA analysis relative to control
[27] = Inhibition of actin (unknown origin) polymerization incubated for 20 mins in presence of ATP by ELISA analysis; design: species or system Homo sapiens
MCF7 [28] = experiment: Potency index, ratio of latrunculin IC50 to test compound IC50 for cytotoxicity against human MCF7 cells; type: functional
HT-29 = experiment: Anticancer activity against human HT-29 cells assessed as cell growth inhibition; type: functional, cell-based
HepG2 [29] = experiment: Anticancer activity against human HepG2 cells assessed as inhibition of cell growth; type: functional, cell-based
Caco-2 = experiment: Anticancer activity against human Caco-2 cells assessed as inhibition of cell growth; type: functional, cell-based
KB 3-1 = experiment: Anticancer activity against human KB 3-1 cells assessed as inhibition in cell growth; type: functional, cell-based
HepG2 [30] = experiment: Anticancer activity against human HepG2 cells assessed as inhibition of cell growth incubated for 48 hrs by ELISA based SRB assay; type: functional; details: HepG2, 48 h
MCF7 [31] = experiment: Anticancer activity against human MCF7 cells assessed as inhibition of cell growth incubated for 48 hrs by ELISA based SRB assay; type: functional; details: MCF7, 48 h
HCT-116 [32] = experiment: Anticancer activity against human HCT-116 cells assessed as inhibition of cell growth measured after 72 hrs by MTT assay; type: functional, cell-based; details: HCT-116, 72 h
P388 = experiment: Anticancer activity against mouse p-388 cells assessed as cell growth inhibition incubated for 3 days; type: functional, cell-based; details: P388, 72 h

Structure (SMILES): COC1=C(Br)[C@H](O)[C@@]2(C=C1Br)CC(C(=O)NCCCCNC(=O)C1=NO[C@]3(C=C(Br)C(OC)=C(Br)[C@@H]3O)C1)=NO2 [AEROTHIONIN]
- IC50 (HeLa [1]): 29 µM
- Activity [2]: 83.7%
- Activity [3]: 82.8%
- Activity [4]: 55.1%
- Activity [5]: 48.3%
- EC50 [6]: 48.1 µM

Structure (SMILES): CCOC(=O)NCCCCNC(=O)C1=NO[C@]2(C=C(Br)C(OC)=C(Br)[C@@H]2O)C1 [SUBEREAMOLLINE A]
- IC50 (MDA-MB-231 [7]): 0.4 µM
- Activity (MDA-MB-231 [8]): 52%
- Activity (MDA-MB-231 [9]): 38%

Structure (SMILES): CCOC(=O)Cc1c(O)cc(Br)c(O)c1Br
- IC50 (HeLa [1]): 13.3 µM
- IC50 (HeLa [10]): 13.3 µM

Structure (SMILES): O[C@]12CCCCCC[C@@H]3CCN4CCC[C@](O)(CCCCCC[C@@H]5CCN(CCC1)[C@H]2O5)[C@@H]4O3
- IC50 (BT-474): 15.2 µM
- IC50 (MDA-MB-231 [11]): 15.2 µM
- IC50 (MCF7 [12]): 8.5 µM
- IC50 (SK-BR-3): 18.3 µM
- IC50 (T47D): 46.1 µM

Structure (SMILES): CC(=O)O[C@@H]1OC=C2C1[C@]1(C)C(C[C@@H]2OC(C)=O)[C@]2(C)CCC3C(C)(C)CCC[C@]3(C)C2C[C@H]1O (stereo partly specified)
- IC50 (HepG2 [13]): 0.041 µM
- IC50 (A549): 0.027 µM
- IC50 (PC-3): 0.077 µM

Structure (SMILES): COC1=C(Br)C[C@]2(OC=C1Br)ON=C(C(=O)NCCCOc1c(Br)cc(CCNC=C3C(=O)C=CC3=O)cc1Br)[C@@H]2O
- IC50 (MDA-MB-231 [7]): 0.29 µM
- IC50 (HeLa [1]): 2.1 µM
- IC50 (HCT-116 [14]): 5.1 µM
- IC50 (MDA-MB-231 [15]): 0.31 µM

Structure (SMILES): COC1=C(Br)[C@@H]2OC(=O)C[C@]2(O)C=C1Br
- IC50 (MDA-MB-231 [16]): 18 µM
- IC50 (MDA-MB-231 [17]): 18 µM

Structure (SMILES): O=c1[nH]cc(F)c(=O)[nH]1 [FLUOROURACIL]
- IC50 (MDA-MB-231 [18]): 13 µM
- IC50 (HeLa [19]): 12.3 µM
- IC50 (HCT-116 [20]): 4.6 µM

Structure (SMILES): CC1(C)CCC[C@]2(C)[C@H]3C[C@@H](O)[C@]4(C)C5=C(COC5=O)[C@@H](O)C[C@H]4[C@]3(C)CC[C@@H]12
- inhibition (INH) (L5178Y [21]): 40.5%
- inhibition (INH) (L5178Y [22]): 55.3%
- IC50 (L5178Y [23]): 0.0075 µM

Structure (SMILES): C/C1=C/C(=O)O[C@@H]2C[C@@H](CC[C@H](C)/C=C\C=C\CC1)O[C@@](O)([C@@H]1CSC(=O)N1CO)C2
- IC50 (MCF7 [24]): 0.12 µM
- IC50 (MDA-MB-231 [25]): 2.99 µM
- inhibition [26]: 35%
- inhibition (Homo sapiens): 90%
- IC50 [27]: 0.21 µM
- Ratio IC50 (MCF7 [28]): 4

Structure (SMILES): C/C1=C/C(=O)O[C@@H]2C[C@@H](CC[C@H](C)/C=C\C=C\CC1)O[C@@](OCCc1ccccc1)([C@@H]1CSC(=O)N1)C2
- IC50 (MCF7 [24]): 0.1 µM
- IC50 (MDA-MB-231 [25]): 2.71 µM
- inhibition [26]: 31%
- inhibition (Homo sapiens): 94%
- IC50 [27]: 0.184 µM
- Ratio IC50 (MCF7 [28]): 4.8

Structure (SMILES): CC1=CC[C@H]2[C@@H]([C@@H]1CC[C@H]1[C@]3(C)CC[C@H](O)C(C)(C)O[C@H]3CC[C@]1(C)O)C(C)(C)CC[C@]2(C)O [SIPHOLENOL L]
- IC50 (HT-29): 4.48 µM
- IC50 (HepG2 [29]): 24 µM
- IC50 (Caco-2): 26.6 µM
- IC50 (KB 3-1): 0.0051 µM

Structure (SMILES): CCCCCCCCCCCCCCCCCC[C@@H](O)C(=O)N[C@@H](CO)[C@H](O)[C@H](O)CCCCCCCCCCCCCCCC
- IC50 (HepG2 [30]): 25.4 µM
- IC50 (MCF7 [31]): 28.3 µM

Structure (SMILES): CC(/C=C/c1ccccc1)=C\[C@H](O)[C@@H]1CCC(=O)N[C@@H](CO)C(=O)NC2C[n+]3cc(n([C@@H]4O[C@H](CO)[C@H](O)[C@H](O)[C@H]4O)c3)CC(NC(=O)CCC[C@@H](C(=O)[O-])NC(=O)[C@@H](O)CNC(=O)[C@H](Cc3ccc(Br)cc3)NC(=O)[C@H]([C@@H](O)C(N)=O)NC(=O)[C@H](CC(N)=O)NC2=O)C(=O)N[C@@H]([C@@H](C)O)C(=O)N[C@@H](CO)C(=O)N[C@@H](Cc2ccccc2)C(=O)N1 (stereo partly specified)
- IC50 (HCT-116 [32]): 6 µM

Structure (SMILES): CC[C@H]1CCCC[C@@]2(C[C@@H]3CC[C@@H]4[C@H](C(=O)OCCCCCCCCCCCCCCCC(=O)N(CCCN)CCCCN)[C@]5(CCC[C@@H](C)O5)NC(=[N+]34)N2)O1
- IC50 (P388): 0.1 µg/mL
